Measurements published in US20170150719A1, “FUNGICIDAL PYRAZOLES AND THEIR MIXTURES” (E I DU PONT DE NEMOURS AND COMPANY, priority 2010, published 2017).

What was measured:
[1] = system: Puccinia recondita f. sp. tritici; assay: Test G: wheat leaf rust, spray after inoculation (curative) on wheat seedlings, visual disease rating; format: in vivo; conditions: 100 = 100% disease control; for Test G rating (% disease control): spray after inoculation, rating without asterisk
Description: (§1) A hyphen (-) indicates no test results.

Septoria nodorum = assay: Test E: Septoria glume blotch, preventive spray on wheat seedlings, visual disease rating; conditions: 100 = 100% disease control; for Test E rating (% disease control): Septoria glume blotch on wheat, preventive spray, rating without asterisk; for Test E rating (disease control): Septoria glume blotch
Septoria tritici = assay: Test F: wheat leaf blotch, preventive spray on wheat seedlings, visual disease rating; format: in vivo; conditions: 100 = 100% disease control; for Test F rating (% disease control): preventive spray, rating without asterisk
Description: as §1

Botrytis cinerea = assay: Test A: tomato Botrytis, preventive spray on tomato seedlings, visual disease rating; conditions: 100 = 100% disease control; for Test A rating (% disease control) / Test A rating (disease control): tomato Botrytis; for Test A rating (% disease control): preventive spray, 0 = no control relative to controls, rating without asterisk
Description: (§2) General protocol for preparing test suspensions for Tests A-I: the test compounds were first dissolved in acetone in an amount equal to 3% of the final volume and then suspended at the desired concentration (in ppm) in acetone and purified water (50/50 mix by volume) containing 250 ppm of the surfactant Trem® 014 (polyhydric alcohol esters). The resulting test suspensions were then used in Tests A-I. Each test was conducted in triplicate, and the results were averaged. Spraying a 200 ppm test suspension to the point of run-off on the test plants was the equivalent of a rate of about 800 g/ha. Unless otherwise indicated, the rating values indicate a 200 ppm test suspension was used. (An asterisk “*” next to the rating value indicates a 40 ppm test suspension was used.)
The test suspension was sprayed to the point of run-off on tomato seedlings. The following day the seedlings were inoculated with a spore suspension of Botrytis cinerea (the causal agent of tomato Botrytis) and incubated in saturated atmosphere at 20° C. for 48 h, and then moved to a growth chamber at 24° C. for 3 additional days, after which time visual disease ratings were made.

[2] = system: Blumeria graminis f. sp. tritici; assay: Test I: wheat powdery mildew, preventive spray on wheat seedlings, visual disease rating; conditions: 100 = 100% disease control; for Test I rating (% disease control) / Test I rating (disease control): wheat powdery mildew; for Test I rating (% disease control): preventive spray, rating without asterisk
[3] = system: Puccinia recondita f. sp. tritici; assay: Test H: wheat leaf rust, preventive spray on wheat seedlings, visual disease rating; conditions: 100 = 100% disease control; for Test H rating (% disease control) / Test H rating (disease control): wheat leaf rust; for Test H rating (% disease control): preventive spray, rating without asterisk; for Test H rating (disease control): sprayed the day before inoculation
Description: as §2
The test suspension was sprayed to the point of run-off on wheat seedlings. The following day the seedlings were inoculated with a spore suspension of Puccinia recondita f. sp. tritici (the causal agent of wheat leaf rust) and incubated in a saturated atmosphere at 20° C. for 24 h, and then moved to a growth chamber at 20° C. for 6 days, after which time visual disease ratings were made.

Alternaria solani = assay: Test B: tomato early blight, preventive spray on tomato seedlings, visual disease rating; conditions: for Test B rating (% disease control) / Test B rating (disease control): tomato early blight, 100 = 100% disease control; for Test B rating (% disease control): preventive spray, rating without asterisk; for Test B rating (disease control): 0 = no disease control relative to the controls
Description: as §2
The test suspension was sprayed to the point of run-off on tomato seedlings. The following day the seedlings were inoculated with a spore suspension of Alternaria solani (the causal agent of tomato early blight) and incubated in a saturated atmosphere at 27° C. for 48 h, and then moved to a growth chamber at 20° C. for 5 days, after which time visual disease ratings were made.

Phytophthora infestans = assay: whole plant or invertebrate; format: in vivo; conditions: for Test C rating (% disease control) / Test C rating (disease control): tomato late blight, 100 = 100% disease control; for Test C rating (% disease control): preventive spray, rating without asterisk; for Test C rating (disease control): 0 = no disease control relative to the controls
[4] = sprayed after inoculation, 0 = no disease control
[5] = 0 = no disease control relative to the controls

## Cc1nn(C)c(Nc2c(F)cc(Cl)cc2Cl)c1-c1ccc(F)cc1Cl [Compound 136, 4-(2-chloro-4-fluorophenyl)-N-(2,4-dichloro-6-fluorophenyl)-1,3-dimethyl-1H-pyrazol-5-amine]
[1]; [4]
  pest or weed control at 200 µg/mL: 100%
Septoria nodorum; Parastagonospora nodorum, in Triticum aestivum, read-out: Test E rating (disease control), Septoria glume blotch, 0 = no disease control relative to the controls
  pest or weed control at 200 µg/mL: 100%
Septoria tritici; Zymoseptoria tritici, 0 = no disease control relative to the controls
  pest or weed control at 200 µg/mL: 100%
Botrytis cinerea; Botrytis cinerea, in Solanum lycopersicum, read-out: Test A rating (disease control), tomato Botrytis, 0 = no disease control relative to the controls
  pest or weed control at 200 µg/mL: 100%
[2]; Blumeria graminis, in Triticum aestivum, read-out: Test I rating (disease control), wheat powdery mildew, 0 = no disease control relative to the controls
  pest or weed control at 200 µg/mL: 100%
[3]; read-out: Test H rating (disease control), wheat leaf rust, sprayed the day before inoculation, 0 = no disease control
  pest or weed control at 200 µg/mL: 100%
Alternaria solani; Alternaria solani, in Solanum lycopersicum, read-out: Test B rating (disease control)
  pest or weed control at 200 µg/mL: 100%
Phytophthora infestans; Phytophthora infestans, in Solanum lycopersicum, read-out: Test C rating (disease control)
  pest or weed control at 200 µg/mL: 0%

## Cc1nn(C)c(Nc2c(F)cc(Cl)cc2I)c1-c1ccc(F)cc1F [compound 180]
[1]
  Test G rating (% disease control): 98%
Septoria nodorum
  Test E rating (% disease control): 99%
Septoria tritici
  Test F rating (% disease control): 100%
Botrytis cinerea
  Test A rating (% disease control): 100%
[2]
  Test I rating (% disease control): 100%
[3]
  Test H rating (% disease control): 100%
Alternaria solani
  Test B rating (% disease control): 100%
Phytophthora infestans
  Test C rating (% disease control): 9%

## COc1ccc(-c2c(C)nn(C)c2Nc2c(F)cc(Cl)cc2Cl)c(F)c1 [compound 191]
[1]
  Test G rating (% disease control): 46%
Septoria nodorum
  Test E rating (% disease control): 92%
Botrytis cinerea
  Test A rating (% disease control): 100%
[2]
  Test I rating (% disease control): 99%
[3]
  Test H rating (% disease control): 99%
Alternaria solani
  Test B rating (% disease control): 99%
Phytophthora infestans
  Test C rating (% disease control): 0%

## Cc1nn(C)c(Nc2ccc(Cl)cc2F)c1-c1c(F)cccc1F [compound 162]
[1]; [4]
  Test G rating (disease control): 9%
Septoria nodorum; [5]
  Test E rating (disease control): 0%
Septoria tritici; [5]
  Test F rating (disease control): 100%
Botrytis cinerea; [5]
  Test A rating (disease control): 100%
[2]; [5]
  Test I rating (disease control): 100%
[3]; 0 = no disease control
  Test H rating (disease control): 100%
Alternaria solani
  Test B rating (disease control): 88%
Phytophthora infestans
  Test C rating (disease control): 0%

## Cc1nn(C)c(Nc2c(Cl)cc(Cl)cc2Cl)c1-c1ccc(F)cc1F [compound 165]
[1]; [4]
  Test G rating (disease control): 67%
Septoria nodorum; [5]
  Test E rating (disease control): 0%
Septoria tritici; [5]
  Test F rating (disease control): 100%
Botrytis cinerea; [5]
  Test A rating (disease control): 100%
[2]; [5]
  Test I rating (disease control): 99%
[3]; 0 = no disease control
  Test H rating (disease control): 99%
Alternaria solani
  Test B rating (disease control): 0%
Phytophthora infestans
  Test C rating (disease control): 0%

## CCOc1ccc(-c2c(C)nn(C)c2Nc2c(F)cc(Cl)cc2F)c(F)c1 [compound 189]
[1]
  Test G rating (% disease control): 0%
Septoria nodorum
  Test E rating (% disease control): 90%
Botrytis cinerea
  Test A rating (% disease control): 100%
[2]
  Test I rating (% disease control): 98%
[3]
  Test H rating (% disease control): 98%
Alternaria solani
  Test B rating (% disease control): 88%
Phytophthora infestans
  Test C rating (% disease control): 0%

## CCOc1cc(F)c(-c2c(C)nn(C)c2Nc2c(F)cc(F)cc2Cl)c(F)c1 [compound 196]
[1]
  Test G rating (% disease control): 0%
Septoria nodorum
  Test E rating (% disease control): 95%
Septoria tritici
  Test F rating (% disease control): 100%
Botrytis cinerea
  Test A rating (% disease control): 100%
[2]
  Test I rating (% disease control): 100%
[3]
  Test H rating (% disease control): 94%
Alternaria solani
  Test B rating (% disease control): 100%
Phytophthora infestans
  Test C rating (% disease control): 0%

## Cc1nn(C)c(Nc2ccc(C#N)cc2F)c1-c1c(F)cccc1F [compound 59]
[1]; [4]
  Test G rating (disease control): 9%
Septoria nodorum; [5]
  Test E rating (disease control): 73%
Septoria tritici; [5]
  Test F rating (disease control): 100%
Botrytis cinerea; [5]
  Test A rating (disease control): 99%
[2]; [5]
  Test I rating (disease control): 98%
[3]; 0 = no disease control
  Test H rating (disease control): 98%
Alternaria solani
  Test B rating (disease control): 94%
Phytophthora infestans
  Test C rating (disease control): 0%
